Here are results for one substance from patent publication US4609549A, “Biologically active substance from Islets-Activating Protein” (Kaken Pharmaceutical Co., Ltd., priority 1983, dated 1986).

One series concerns ddY mice. The series can be described thus: Acute toxicity (LD50), intravenous. The series is classed as in vivo. The following applies: i.v., ddY mice (male). An excerpt:
(§1) The control is non-modified IAP.

Series [1] concerns Epinephrine hyperglycemia. The experiment in a line: Stability in methylamine solution: change with time of EpI activity. The series is classed as in vivo, male Wistar rats. The conditions noted are these: 3.44M methylamine solution (pH 9.5). The procedure: (§2) Each sample is intravenously injected to the male Wistar rats (about 150 g body weight) at a dose of 12 μg/kg, and after sample injection, epinephrine is subcutaneously injected to the rats under fast on a daily basis. The difference between blood sugar level before epinephrine injection and that one hour after injection is compared with the difference in the control group to thereby determine the EpI activity (%).
(§3) ΔGC : control group [(blood sugar level after epinephrine injection)-(blood sugar level before injection)]
(§4) ΔGT : sample-administered group [(blood sugar level after epinephrine injection)-(blood sugar level before injection)] [formula]
(§5) The stability in an amine-containing alkaline solution of the modified IAP of the present invention and an IAP amidino derivative disclosed in Japanese Patent Application Laid-Open No. 129295/80 (Application No. 35877/79) was examined.

Series [2] is described as follows: Stability of IAP (heat, moisture). The series is classed as physicochemical. The procedure: (§6) The powder of IAP obtained by freeze-drying the aqueous dialysed and de-salted solution is non-deliquescent, and white or light brown in colour, and is soluble in water to the extent of 3 to 5 mg/ml at room temperature. […] When IAP is put into aqueous 6N hydrochloric acid solution, a precipitate white in colour separates out. Addition of sodium sulfate, dry ice plus acetone, ethanol, trichloroacetic acid, aqueous solution of zinc chloride, or aqueous solutions containing several other kinds of metal ions to an aqueous solution of IAP at 4° C., causes the aqueous solution to become turbid and a precipitate to settle out. When IAP is put into a mixture of water and chloroform or of water and n-butanol, IAP gathers on the interface of both liquids.
In addition, when IAP is dissolved into aqueous 0.1M phosphate buffer solution of pH of 7.0 containing sodium chloride at 0.5M and the solution is subjected to dialysis against distilled water as the external liquid, the mixed solution becomes turbid once, however, with the progress of dialysis, the white turbidity disappears completely.

Series [3] relates to Epinephrine hyperglycemia. The experiment in a line: Epinephrine hyperglycemia inhibitory activity (EpI activity) one day after administration. The series is classed as in vivo. The following applies: 12 μg/kg i.v., male Wistar rats. As for the experimental part:
IV. Epinephrine hyperglycemia inhibitory activity (EpI activity)
as §2, §3, §4, §1

Another series in a line: Solubility. The series is classed as physicochemical. The following applies: pyridine, 2-mercaptoethanol, aqueous sodium dodecylsulfate and cystine. The procedure: as §6
The subject of series [4] is leukocyte count. The experiment in a line: Leukocytosis-promoting activity (ΔLP activity) one day after administration. The following applies: 12 μg/kg i.v., male Wistar rats. As for the experimental part:
V. Leukocytosis-promoting activity (ΔLP activity)
Each sample is intravenously injected into male Wister rats (about 150 g body weight) at a rate of 12 μg/kg, and the leukocyte count is measured on a daily basis. The leukocyte increment is determined from the difference in leukocyte count between the sample-administered group and the control group.
(§7) ΔLP activity=(leukocyte count in sample-administered
(§8) group)-(leukocyte count in control group)
The pharmacological activity, acute toxicity, and stability in an alkaline solution, of the resultant products obtained in the Examples were examined in the manners described above.
as §1

A further series relates to secretion of insulin. The series can be described thus: Activity of promoting the secretion of insulin. The series is classed as in vivo, mammals. An excerpt: The definition of the activity units used in the present invention is described in Japanese Patent Application Laying Open No. 96392/72 which corresponds to G.B. Patent No. 1,569,046.
The test system of series [5] is pertussis 18-323 strain (I-phase). The series can be described thus: Infection prevention test (survival after intracerebral inoculation of live pertussis bacteria). The series is classed as in vivo, Bordetella pertussis (ddY mice, male). The following applies: two weeks after inoculation. The procedure:
(ii) The IAP processed into toxoid with glutaraldehyde (hereinafter referred to as toxoid-processed IAP) used as the comparative example was prepared in the following precedures. To 0.1M phosphate buffer solution (containing 2M urea, pH 7.0) containing IAP (0.5 mg/ml) adjusted to pH 9.0 by adding 1N sodium hydroxide, was added a 25% aqueous solution of glutaraldehyde so that the final concentration of glutaraldehyde would become 0.05%. The mixed solution was reacted under stirring at room temperature for 22 hours. The resultant solution was then sufficiently dialyzed against a 0.1M phosphate buffer solution (containing 2M urea, pH 7.0) to obtain the toxoid-processed IAP.
(iii) A toxoid-processed reductively methylated IAP was also similarly prepared by using a reductively methylated IAP solution in place of an IAP solution.
There were prepared five kinds of the physiological saline solutions containing a dead pertussis vaccine (made by KAKEN PHARMACEUTICAL CO., LTD.), toxoid-processed IAP, toxoid-processed reductively methylated IAP, IAP and reductively methylated IAP, respectively, and 0.1 ml of each of these physiological saline solutions was administered into the peritoneal cavities of the ddY mice (male, 4 weeks old) (13 mice per one group). Two weeks after the administration, the live pertussis 18-323 strain (I-phase) bacteria were inoculated into the encephalon at a rate of 4×10^4cells/animal. […] Used as the control was a group of mice which were treated similarly by giving 0.1 ml of a physiological saline solution alone into the peritoneal cavity.

The next series deals with glucose tolerance. The experiment in a line: Glucose tolerance. The conditions noted are these: mammals. The series is classed as in vivo.
Series [6] concerns leukocyte count. The experiment in a line: Stability in methylamine solution: change with time of ΔLP activity. The series is classed as in vivo, male Wistar rats. The following applies: 3.44M methylamine solution (pH 9.5).
From the text: as §7, §8, §5

The nature of another series: Isoelectric point. The series is classed as physicochemical. An excerpt:
The isoelectric point of IAP determined by the method described in Wringley, C.W., "J. Chromatogr.", 36, 362-372 (1968) is pH 8.9±0.5.

“IAP: Islets-Activating Protein obtained by the cultivation of suitable strain(s) of the microorganism Bordetella pertussis (Phase I or II)” came in with an LD50 with ddY mice of 0.215 mg/kg. For the same substance, the EpI activity turned out to be 82.0% in series [1] (treatment time 0 hr); 83.0% in series [1] (treatment time 24 hr); 80.5% in series [1] (treatment time 48 hr); 79.8% in [1] (treatment time 72 hr); 85.0% in series [3]. In series [2], the “deliquescence of freeze-dried powder” value is recorded as “non-deliquescent”. Also, the “stability of aqueous solution on heating” value in series [2] (heated to 80° C. or higher) is given as “the solution becomes turbid white in colour”. The “solubility in other solvents” value in the series “Solubility” is “soluble in pyridine, 2-mercaptoethanol and aqueous solution of sodium dodecylsulfate and of cystine”. Further, the ΔLP activity in the series with leukocyte count [4] was 140.1 × 10^2 /mm^3; with leukocyte count [6] (treatment time 0 hr) it was 144 × 10^2 /mm^3; in the series with leukocyte count [6] (treatment time 24 hr) it was 141 × 10^2 /mm^3; with leukocyte count [6] (treatment time 48 hr) it was 138 × 10^2 /mm^3; in the series with leukocyte count [6] (treatment time 72 hr), 139 × 10^2 /mm^3. Also, the “duration of insulin secretion promoting and glucose tolerance improving actions” value with secretion of insulin (after a single administration) is “several weeks to several months”. Besides, the “activity of promoting the secretion of insulin” value in the series with secretion of insulin (in vivo) is on record as “not less than 193 unit/μg”. Further, the “Number of animals which survived/total number of animals tested” value in [5] (0.04 μg/animal i.p.) is 6/13; in [5] (0.2 μg/animal i.p.) it was 8/13; in [5] (1 μg/animal i.p.), 3/13. Further, the figures for the Survival rate in series [5] (0.04 μg/animal i.p.), in [5] (0.2 μg/animal i.p.) and in [5] (1 μg/animal i.p.) were 46%, 62% and 23%, respectively. The “activity of improving the glucose tolerance” value with glucose tolerance was “improving the glucose tolerance in mammals”. The substance also yielded an isoelectric point in the series “Isoelectric point” of 8.9±0.5 pH.
